Experimental data: US9067932B2, “Pyrazolopyridine kinase inhibitors” (Vertex Pharmaceuticals Incorporated, priority 2010, dated 2015)
pKi: −log10 of the molar value. Like-named read-outs stand apart in the source and are kept apart here.

Legend:
Type in all cases: biochemical
PKC alpha kinase = PKC alpha kinase (Homo sapiens, UniProt P17252); experiment: PKC alpha coupled-enzyme (NADH consumption) kinase assay; settings: 4.5 nM PKC alpha, 130 μM ATP, 100 μM CaCl2, 30° C.
Experimental: An assay buffer solution was prepared which consisted of 100 mM HEPES (pH 7.5), 10 mM MgCl2, 25 mM NaCl, 0.1 mM EDTA, 100 μM CaCl2 and 0.01% Brij. An enzyme buffer containing reagents to final assay concentrations of 0.002% Triton X-100, 100 μg/mL Phosphatidylserine, 20 μg/mL Diacylglycerol, 360 μM NADH, 3 mM phosphoenolpyruvate, 70 μg/mL pyruvate kinase, 24 μg/mL lactate dehydrogenase, 2 mM DTT, 150 μM substrate peptide ([…] SEQ ID NO. 1) and 4.5 nM PKC alpha kinase was prepared in assay buffer. To 16 μL of this enzyme buffer, in a 384 well plate, was added 1 μL of VRT stock solution in DMSO. The mixture was allowed to equilibrate for 10 mins at 30° C. The enzyme reaction was initiated by the addition of 16 μL stock ATP solution prepared in assay buffer to a final assay concentration of 130 μM. Initial rate data was determined from the rate of change of absorbance at 340 nm (corresponding to stoichiometric consumption of NADH) using a Molecular Devices Spectramax plate reader (Sunnyvale, Calif.) over 15 mins at 30° C. For each Ki determination 12 data points covering the VRT concentration range of 0-20 μM were obtained in duplicate (DMSO stocks were prepared from an initial 10 mM VRT stock with subsequent 1:2 serial dilutions). Ki values were calculated from initial rate data by non-linear regression using the Prism software package (Prism 4.0a, Graphpad Software, San Diego, Calif.).

PKC theta kinase = PKC theta kinase (Homo sapiens, UniProt Q04759); experiment: PKC theta coupled-enzyme (NADH consumption) kinase assay; settings: 18 nM PKC theta, 240 μM ATP, 30° C., initial rate at 340 nm
PKC theta kinase, sequence (Q04759 whole entry): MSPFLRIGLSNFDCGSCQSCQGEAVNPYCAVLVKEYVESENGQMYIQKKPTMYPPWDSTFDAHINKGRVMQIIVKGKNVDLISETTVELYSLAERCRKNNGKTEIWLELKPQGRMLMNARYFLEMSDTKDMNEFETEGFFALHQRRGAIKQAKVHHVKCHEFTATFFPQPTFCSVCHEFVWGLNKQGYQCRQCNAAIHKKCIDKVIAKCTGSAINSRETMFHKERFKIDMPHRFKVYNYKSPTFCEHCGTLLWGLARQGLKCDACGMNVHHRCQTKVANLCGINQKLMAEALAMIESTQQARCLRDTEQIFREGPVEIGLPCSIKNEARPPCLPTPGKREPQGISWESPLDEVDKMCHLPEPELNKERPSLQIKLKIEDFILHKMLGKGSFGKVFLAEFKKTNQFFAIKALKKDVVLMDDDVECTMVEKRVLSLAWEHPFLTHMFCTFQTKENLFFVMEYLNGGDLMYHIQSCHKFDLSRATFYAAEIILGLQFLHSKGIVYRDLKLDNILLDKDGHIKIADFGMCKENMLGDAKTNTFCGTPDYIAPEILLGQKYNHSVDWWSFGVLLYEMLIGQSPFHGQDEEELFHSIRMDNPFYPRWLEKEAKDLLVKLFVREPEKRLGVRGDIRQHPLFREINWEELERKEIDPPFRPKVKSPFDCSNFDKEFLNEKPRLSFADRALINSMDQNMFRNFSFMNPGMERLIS
Experimental: (§1) An assay buffer solution was prepared which consisted of 100 mM HEPES (pH 7.5), 10 mM MgCl2, 25 mM NaCl, 0.1 mM EDTA and 0.01% Brij. […] To 60 μL of this enzyme buffer, in a 384 well plate, was added 2 μL of VRT stock solution in DMSO. […] The enzyme reaction was initiated by the addition of 5 μL stock ATP solution prepared in assay buffer to a final assay concentration of 240 μM. Initial rate data was determined from the rate of change of absorbance at 340 nm (corresponding to stoichiometric consumption of NADH) using a Molecular Devices Spectramax plate reader (Sunnyvale, Calif.) over 15 mins at 30° C. For each Ki determination 12 data points covering the VRT concentration range of 0-20 μM were obtained in duplicate (DMSO stocks were prepared from an initial 10 mM VRT stock with subsequent 1:2 serial dilutions). Ki values were calculated from initial rate data by non-linear regression using the Prism software package (Prism 4.0a, Graphpad Software, San Diego, Calif.).

PKC delta kinase = PKC delta kinase (Homo sapiens, UniProt Q05655); experiment: PKC delta coupled-enzyme (NADH consumption) kinase assay; settings: 46 nM PKC delta, 150 μM ATP, 30° C., initial rate at 340 nm
PKC delta kinase, sequence (Q05655 whole entry): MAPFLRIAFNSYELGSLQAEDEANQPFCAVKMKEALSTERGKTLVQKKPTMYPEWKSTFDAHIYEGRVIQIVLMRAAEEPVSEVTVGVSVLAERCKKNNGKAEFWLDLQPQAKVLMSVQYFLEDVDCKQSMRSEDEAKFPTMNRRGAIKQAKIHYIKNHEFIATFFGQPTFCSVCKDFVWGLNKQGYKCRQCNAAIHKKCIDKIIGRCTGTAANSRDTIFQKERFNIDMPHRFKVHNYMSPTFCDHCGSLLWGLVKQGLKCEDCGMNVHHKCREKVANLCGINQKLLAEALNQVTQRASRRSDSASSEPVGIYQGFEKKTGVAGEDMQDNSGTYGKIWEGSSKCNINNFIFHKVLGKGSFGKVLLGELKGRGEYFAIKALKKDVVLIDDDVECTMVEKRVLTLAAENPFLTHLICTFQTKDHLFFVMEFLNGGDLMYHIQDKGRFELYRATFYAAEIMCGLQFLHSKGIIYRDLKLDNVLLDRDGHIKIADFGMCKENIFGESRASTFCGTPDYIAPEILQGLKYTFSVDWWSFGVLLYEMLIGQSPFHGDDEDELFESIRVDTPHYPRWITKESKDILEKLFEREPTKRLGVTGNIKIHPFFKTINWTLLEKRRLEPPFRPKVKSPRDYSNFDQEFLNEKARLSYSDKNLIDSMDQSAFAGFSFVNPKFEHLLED
Experimental: as §1, with “To 16” for “To 60”, “added 1” for “added 2”, “of 16” for “of 5”, “of 150” for “of 240”

pKi (PKC alpha kinase; read-out: Ki PKC alpha)	pKi (PKC theta kinase; read-out: Ki PKC theta)	pKi (PKC delta kinase)	Structure (SMILES)	pKi (PKC alpha kinase; Ki PKC alpha)	pKi (PKC theta kinase; Ki PKC theta)
< 5.90	> 6.30	< 5.90	CC(C)C(N)[C@H]1CCN(c2nc(-c3n[nH]c4ncccc34)c(C#N)cc2F)C1 (single isomer, unassigned) [Compound 36]		
> 6.30	> 9.00	> 8.00	CC1(C)CC1(O)C1CN(c2nc(-c3n[nH]c4ncccc34)c(F)cc2F)CCN1 (stereo not shown) [Compound 2]		
< 5.90	> 9.00	> 6.30	CC(O)(C1CC1)C1CN(c2nc(-c3n[nH]c4ncccc34)c(F)cc2F)CCN1 (stereo not shown) [Compound 4]		
> 6.30		> 7.30	CC(O)(C1CC1)C1CN(c2nc(-c3n[nH]c4ncccc34)c(F)cc2F)CCN1 (stereo not shown) [Compound 5]		
> 5.55	> 9.00	> 7.30	CCC(C)(O)C1CN(c2nc(-c3n[nH]c4ncccc34)c(F)cc2F)CCN1 (stereo not shown) [Compound 6]		
> 6.30	> 9.00	> 7.30	CC(C)[C@@H](O)[C@@H]1CN(c2nc(-c3n[nH]c4ncccc34)c(F)cc2F)CCN1 [Compound 7]		
> 5.55	> 9.00	> 7.30	CC[C@@H](O)[C@@H]1CN(c2nc(-c3n[nH]c4ncccc34)c(F)cc2F)CCN1 [Compound 8]		
> 6.30	> 9.00	> 7.30	CC(C)[C@@](C)(O)[C@@H]1CN(c2nc(-c3n[nH]c4ncccc34)c(F)cc2Cl)CCN1 [Compound 9, (R)-2-((S)-4-(3-chloro-5-fluoro-6-(1H-pyrazolo[3,4-b]pyridin-3-yl)pyridin-2-yl)piperazin-2-yl)-3-methylbutan-2-ol]		
< 5.90			CC(C)[C@@](C)(O)[C@@H]1CN(c2nc(-c3n[nH]c4ncccc34)c(F)cc2C#N)CCN1 [Compound 10]		
> 5.55	> 9.00	> 8.00	CC(C)(F)C(C)(O)C1CN(c2nc(-c3n[nH]c4ncccc34)c(F)cc2F)CCN1 (stereo not shown) [Compound 11]		
> 6.30		> 7.30	CC(C)(F)C(C)(O)C1CN(c2nc(-c3n[nH]c4ncccc34)c(F)cc2F)CCN1 (stereo not shown) [Compound 12]		
> 5.55	> 9.00	> 6.30	CC(O)(C1CN(c2nc(-c3n[nH]c4ncccc34)c(F)cc2F)CCN1)C(F)(F)F (stereo not shown) [Compound 13]		
> 6.30	> 9.00	> 7.30	CC(O)(CC(F)(F)F)C1CN(c2nc(-c3n[nH]c4ncccc34)c(F)cc2F)CCN1 (stereo not shown) [Compound 15]		
< 5.90	> 7.30	> 6.30	COCC(C)(O)C1CN(c2nc(-c3n[nH]c4ncccc34)c(F)cc2F)CCN1 (stereo not shown) [Compound 16]		
> 5.55			COCC(C)(O)C1CN(c2nc(-c3n[nH]c4ncccc34)c(F)cc2F)CCN1 (stereo not shown) [Compound 17]		
< 5.90	> 7.30	> 6.30	CCC(O)C1CN(c2nc(-c3n[nH]c4ncccc34)c(F)cc2Cl)CCN1 (stereo not shown) [Compound 18]		
> 5.55	> 9.00	> 7.30	CCC(O)C1CN(c2nc(-c3n[nH]c4ncccc34)c(F)cc2Cl)CCN1 (stereo not shown) [Compound 19]		
> 6.30	> 9.00	> 7.30	CC(C)C(O)C1CN(c2nc(-c3n[nH]c4ncccc34)c(F)cc2Cl)CCN1 (stereo not shown) [Compound 20]		
> 5.55	> 7.30	> 6.30	CC(C)C(O)C1CN(c2nc(-c3n[nH]c4ncccc34)c(F)cc2Cl)CCN1 (stereo not shown) [Compound 21]		

pKi (PKC alpha kinase; read-out: Ki PKC alpha)	pKi (PKC theta kinase; read-out: Ki PKC theta)	pKi (PKC delta kinase)	Structure (SMILES)	pKi (PKC alpha kinase; Ki PKC alpha)	pKi (PKC theta kinase; Ki PKC theta)
> 5.55	> 7.30	> 6.30	CC(C)C(N)C1CCN(c2nc(-c3n[nH]c4ncccc34)c(F)cc2F)C1 (stereo not shown) [Compound 22]		
> 6.30	> 9.00	> 7.30	CC(C)C(N)[C@H]1CCN(c2nc(-c3n[nH]c4ncccc34)c(F)cc2Cl)C1 (stereo partly shown) [Compound 23]		
< 5.90	> 7.30	> 6.30	CC(C)C(N)[C@H]1CCN(c2nc(-c3n[nH]c4ncccc34)c(F)cc2Cl)C1 (stereo partly shown) [Compound 24]		
< 5.90	> 7.30	> 6.30	CC[C@H](O)[C@@H]1CN(c2nc(-c3n[nH]c4ncccc34)c(F)cc2F)CCN1 [Compound 25]		
> 6.30	> 9.00	> 8.00	CC(C)(C)C(O)C1CN(c2nc(-c3n[nH]c4ncccc34)c(F)cc2Cl)CCN1 (stereo not shown) [Compound 26]		
> 6.30	> 9.00	> 8.00	CC(C)(C)C(O)C1CN(c2nc(-c3n[nH]c4ncccc34)c(F)cc2F)CCN1 (stereo not shown) [Compound 27]		
> 6.30	> 9.00	> 7.30	CC(C)C(N)[C@H]1CCN(c2nc(-c3n[nH]c4ncccc34)c(F)cc2F)C1 (stereo partly shown) [Compound 28]		
> 6.30	> 9.00	> 7.30	OC(C1CC1)C1CN(c2nc(-c3n[nH]c4ncccc34)c(F)cc2F)CCN1 (stereo not shown) [Compound 29]		
> 6.30	> 9.00	> 8.00	CC(O)(C1CC1)C1CN(c2nc(-c3n[nH]c4ncccc34)c(F)cc2Cl)CCN1 (stereo not shown) [Compound 30]		
> 5.55	> 9.00	> 7.30	OC(C1CC1)C1CN(c2nc(-c3n[nH]c4ncccc34)c(F)cc2Cl)CCN1 (stereo not shown) [Compound 31]		
> 6.30	> 9.00	> 8.00	CC(C)[C@@](C)(O)[C@@H]1CN(c2nc(-c3n[nH]c4ncccc34)c(F)cc2O)CCN1 [Compound 32]		
< 5.90	> 7.30	> 6.30	COCC(C)(O)C1CN(c2nc(-c3n[nH]c4ncccc34)c(F)cc2Cl)CCN1 (stereo not shown) [Compound 33]		
< 5.90	> 7.30	< 5.90	CC(C)[C@@](C)(O)C1CN(c2nc(-c3n[nH]c4ncccc34)c(C#N)cc2F)CCN1 (stereo partly shown) [Compound 34]		
	> 6.30		CC(C)[C@@](C)(O)C1CN(c2nc(-c3n[nH]c4ncccc34)c(C#N)cc2F)CCN1 (stereo partly shown) [Compound 35]		
> 5.55	> 7.30	> 6.30	CC(C)C(N)[C@H]1CCN(c2nc(-c3n[nH]c4ncccc34)c(F)cc2C#N)C1 (stereo partly shown) [Compound 37]		
> 5.55	> 7.30	> 6.30	CC(C)[C@](C)(O)[C@@H]1CN(c2nc(-c3n[nH]c4ncccc34)c(F)cc2Cl)CCN1 [Compound 38]		
< 5.90	> 7.30	> 6.30	CC(CO)[C@@](C)(O)[C@@H]1CN(c2nc(-c3n[nH]c4ncccc34)c(F)cc2F)CCN1 (stereo partly shown) [Compound 39]		
> 6.30	> 9.00	> 7.30	CC(CO)[C@@](C)(O)[C@@H]1CN(c2nc(-c3n[nH]c4ncccc34)c(F)cc2F)CCN1 (stereo partly shown) [Compound 40]		

Structure (SMILES)	pKi (PKC alpha kinase; read-out: Ki PKC alpha)	pKi (PKC theta kinase; read-out: Ki PKC theta)	pKi (PKC delta kinase)	pKi (PKC alpha kinase; Ki PKC alpha)	pKi (PKC theta kinase; Ki PKC theta)
CC(C)[C@@](C)(O)[C@@H]1CN(c2nc(-c3n[nH]c4ncccc34)c(F)cc2F)CCN1 [Compound 1, (R)-2-((S)-4-(3,5-difluoro-6-(1H-pyrazolo[3,4-b]pyridin-3-yl)pyridin-2-yl)piperazin-2-yl)-3-methylbutan-2-ol]			> 7.30	> 6.30	> 9.00
CC(C)C(C)(O)C1CN(c2nc(C3N=Nc4ncccc43)c(F)cc2F)CCN1 (stereo not shown) [Compound 3]			> 6.30	> 5.55	> 9.00
